From US20230087118A1, “IMIDAZO[1,2-a][sequence] DERIVATIVES AND THEIR USE IN THE TREATMENT OF DISEASE” (priority 2019, published 2023)
Where a name gives a salt, the structure may show the parent alone. Read-outs that look alike come from different tables or passages of the source.

Target: T1, IRAK4 (Homo sapiens, UniProt Q9NWZ3)
T1 sequence (Q9NWZ3 1-460): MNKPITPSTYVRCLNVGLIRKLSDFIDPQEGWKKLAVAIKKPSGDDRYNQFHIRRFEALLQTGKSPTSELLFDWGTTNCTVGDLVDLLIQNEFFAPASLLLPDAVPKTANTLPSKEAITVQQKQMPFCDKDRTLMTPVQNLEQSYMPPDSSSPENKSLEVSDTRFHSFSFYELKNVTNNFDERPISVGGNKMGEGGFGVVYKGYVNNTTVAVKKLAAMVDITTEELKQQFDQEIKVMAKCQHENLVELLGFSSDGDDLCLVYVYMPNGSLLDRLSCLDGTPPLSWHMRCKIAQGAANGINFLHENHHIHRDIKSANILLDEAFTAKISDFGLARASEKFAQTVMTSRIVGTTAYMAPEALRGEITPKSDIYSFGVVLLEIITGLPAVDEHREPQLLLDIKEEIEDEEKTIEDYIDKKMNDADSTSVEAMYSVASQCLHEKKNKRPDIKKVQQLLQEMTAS
Test: biochemical

[1] = IRAK4 Biochemical Assay (1 mM ATP, 2 h) IC50 (μM), 1 mM ATP, 2 h, 100 pM IRAK4

| SMILES | IC50 [1] [µM] | IC50 [µM] |
| --- | --- | --- |
| COc1nc(C(=O)Nc2cccc3c2OCCC3)cn2cc(C3CCOCC3)nc12 [Example 205, N-chroman-8-yl-8-methoxy-2-tetrahydropyran-4-yl-imidazo[1,2-a]pyrazine-6-carboxamide trifluoroacetate] | 0.0341 | – |
| COc1nc(C(=O)Nc2cccc(C(F)F)n2)cn2cc(C3CCOCC3)nc12 [Example 206, N-[6-(difluoromethyl)-2-pyridyl]-8-methoxy-2-tetrahydropyran-4-ylimidazo[1,2-a]pyrazine-6-carboxamide trifluoroacetate] | 0.0128 | – |
| CCOc1nc(C(=O)Nc2cccc(C(F)F)n2)cn2cc(C3CCOCC3)nc12 [Example 207, N-[6-(difluoromethyl)-2-pyridyl]-8-ethoxy-2-tetrahydropyran-4-ylimidazo[1,2-a]pyrazine-6-carboxamide trifluoroacetate] | 0.0147 | – |
| COc1ncccc1NC(=O)c1cn2cc(C3CCOCC3)nc2c(OC)n1 [Example 208] | – | 0.0209 |
| CCOc1nc(C(=O)Nc2cccnc2OC)cn2cc(C3CCOCC3)nc12 [Example 209] | – | 0.0057 |
| COc1nc(C(=O)Nc2cccc3c2CCC3)cn2cc(C3CCOCC3)nc12 [Example 210] | – | 0.302 |
| CCOc1nc(C(=O)Nc2cccc3c2CCC3)cn2cc(C3CCOCC3)nc12 [Example 211] | – | 0.0116 |
| COc1cc2nc(C3CCOCC3)cn2cc1C(=O)Nc1cc(F)cn(C)c1=O [Example 212, N-(5-fluoro-1-methyl-2-oxo-1,2-dihydropyridin-3-yl)-7-methoxy-2-(tetrahydro-2H-pyran-4-yl)imidazo[1,2-a]pyridine-6-carboxamide trifluoroacetate] | 0.016 | – |
| Cc1nc(C(=O)Nc2cccc(C(F)F)n2)cn2cc(C3CCOCC3)nc12 [Example 213] | – | 0.0607 |
| O=C(Nc1cccc(C(F)F)n1)c1cc(Cl)c2nc(C3CCOCC3)cn2c1 [Example 214] | – | 0.0715 |
| CC(C)Oc1nc2nc(C34COC(C)(C3)C4)cn2cc1C(=O)Nc1cccc(C(F)F)n1 [Example 218] | 0.0002 | – |
| CC(C)Oc1cc2nc(C34COC(C)(C3)C4)cn2cc1C(=O)Nc1ccccn1 [Example 219] | – | 0.0069 |
| CC(C)Oc1cc2nccn2cc1C(=O)Nc1cccc(C(F)F)n1 [Example 220] | – | 0.0115 |
| CC(C)Oc1cc2nc(C34COC(C)(C3)C4)cn2cc1C(=O)Nc1cccnc1OC(F)F [Example 222] | – | 0.0081 |
| CCOc1nc(C(=O)Nc2cccnc2OC)cn2cc(C3CCCOC3)nc12 (centres unmarked) [Example 224] | – | 0.0086 |
| CCOc1nc(C(=O)Nc2cccnc2OC)cn2cc(C34COC(C)(C3)C4)nc12 [Example 225] | – | 0.0052 |
| CC(C)Oc1cc2nc(C34COC(C)(C3)C4)c(Cl)n2cc1C(=O)Nc1cccc(C(F)F)n1 [Example 229, 3-Chloro-N-(6-(difluoromethyl)pyridin-2-yl)-7-isopropoxy-2-(1-methyl-2-oxabicyclo[2.1.1]hexan-4-yl)imidazo[1,2-a]pyridine-6-carboxamide] | – | 0.0393 |
| CC(C)Oc1c(C(=O)Nc2cccc(C(F)(F)F)n2)cn2cc(C34COC(C)(C3)C4)nc2c1F [Example 230, 8-Fluoro-7-isopropoxy-2-(1-methyl-2-oxabicyclo[2.1.1]hexan-4-yl)-N-(6-(trifluoromethyl)pyridin-2-yl)imidazo[1,2-a]pyridine-6-carboxamide trifluoroacetate] | 0.003 | – |
| COc1nc(C(=O)Nc2cccc(C(F)F)n2)cn2cc(C34COC(C)(C3)C4)nc12 [Example 231, N-(6-(difluoromethyl)pyridin-2-yl)-8-methoxy-2-(1-methyl-2-oxabicyclo[2.1.1]hexan-4-yl)imidazo[1,2-a]pyrazine-6-carboxamide] | – | 0.0071 |
| COc1nc(C(=O)Nc2cccc(C(F)F)n2)cn2cc(C34CCOC(C)(C3)C4)nc12 [Example 234] | – | 0.0053 |
| COc1ncccc1NC(=O)c1cn2cc(C34CCOC(C)(C3)C4)nc2c(OC)n1 [Example 235] | – | 0.0035 |
| COc1nc(C(=O)Nc2cccc(C(F)(F)F)n2)cn2cc(C34CCOC(C)(C3)C4)nc12 [Example 238] | – | 0.0064 |
| CC(C)Oc1cc2nc(C34COC(C)(C3)C4)cn2cc1C(=O)Nc1ccc(F)cn1 [Example 244] | – | 0.0059 |
| CC12CCC(c3cn4cc(C(=O)Nc5cccc(C(F)F)n5)cc(OC(F)F)c4n3)(CO1)C2 (centres unmarked) [Example 251] | – | 0.0153 |
| COc1ncccc1NC(=O)c1cn2cc(C34CC(OC)(C3)C4)nc2cc1OC(C)C [Example 252, 7-Isopropoxy-2-(3-methoxybicyclo[1.1.1]pentan-1-yl)-N-(2-methoxypyridin-3-yl)imidazo[1,2-a]pyridine-6-carboxamide trifluoroacetate] | 0.0004 | – |
| CC(C)Oc1cc2nc(C3C4COCC43)cn2cc1C(=O)Nc1cccc(C(F)F)n1 (centres unmarked) [Example 253, 2-(3-Oxabicyclo[3.1.0]hexan-6-yl)-N-(6-(difluoromethyl)pyridin-2-yl)-7-isopropoxyimidazo[1,2-a]pyridine-6-carboxamide hydrochloride] | 0.0004 | – |
| CC(C)Oc1c(C(=O)Nc2cccn(C)c2=O)cn2cc(C34COC(C)(C3)C4)nc2c1Cl [Example 255, 8-Chloro-7-isopropoxy-N-(1-methyl-2-oxo-1,2-dihydropyridin-3-yl)-2-(1-methyl-2-oxabicyclo[2.1.1]hexan-4-yl)imidazo[1,2-a]pyridine-6-carboxamide] | – | 0.158 |
| Cc1cnc2c(NC(=O)c3cn4cc(C56COC(C)(C5)C6)nc4c(F)c3OC3CCC3)cnn2c1 [Example 256, 7-Cyclobutoxy-8-fluoro-2-(1-methyl-2-oxabicyclo[2.1.1]hexan-4-yl)-N-(6-methylpyrazolo[1,5-a]pyrimidin-3-yl)imidazo[1,2-a]pyridine-6-carboxamide] | – | 0.0009 |
| CC(C)Oc1cc2nc(C34COC(C)(C3)C4)cn2cc1C(=O)Nc1cccc(C#N)c1F [Example 257, N-(3-cyano-2-fluorophenyl)-7-isopropoxy-2-(1-methyl-2-oxabicyclo[2.1.1]hexan-4-yl)imidazo[1,2-a]pyridine-6-carboxamide trifluoroacetate] | 0.0003 | – |
| CC(C)Oc1cc2nc(C34COC(C)(C3)C4)cn2cc1C(=O)Nc1ccnc(C(F)F)c1 [Example 258, N-(2-(difluoromethyl)pyridin-4-yl)-7-isopropoxy-2-(1-methyl-2-oxabicyclo[2.1.1]hexan-4-yl)imidazo[1,2-a]pyridine-6-carboxamide] | – | 0.0596 |

Next, values leading:

| IC50 [1] [µM] | IC50 [µM] | SMILES |
| --- | --- | --- |
| – | 0.0013 | CC(C)Oc1cc2nc(C34CC(C3)C4)cn2cc1C(=O)Nc1cccc(C(F)F)n1 [Example 215] |
| – | 0.0005 | COc1ncccc1NC(=O)c1cn2cc(C34COC(C)(C3)C4)nc2cc1OC(C)C [Example 216] |
| – | 0.0017 | CC(C)Oc1c(C(=O)Nc2cccc(C(F)F)n2)cn2cc(C34COC(C)(C3)C4)nc2c1F [Example 217] |
| – | 0.0006 | CC(C)Oc1cc2nc(C34COC(C)(C3)C4)cn2cc1C(=O)Nc1cccc2ccnn12 [Example 221] |
| – | 0.0022 | CCOc1nc(C(=O)Nc2cccc(C(F)F)n2)cn2cc(C3CCCOC3)nc12 (centres unmarked) [Example 223] |
| – | 0.0024 | CCOc1nc(C(=O)Nc2cccc(C(F)F)n2)cn2cc(C34COC(C)(C3)C4)nc12 [Example 226] |
| – | 0.0003 | COC12CC(c3cn4cc(C(=O)Nc5cccc(C(F)F)n5)c(OC(C)C)cc4n3)(C1)C2 [Example 227] |
| – | 0.0031 | COc1ncccc1NC(=O)c1cn2cc(C34COC(C)(C3)C4)nc2c(OC)n1 [Example 232] |
| – | 0.0025 | COc1cc2nc(C34CCOC(C)(C3)C4)cn2cc1C(=O)Nc1cccc(C(F)F)n1 [Example 233] |
| – | 0.0002 | CC(C)Oc1nc2nc(C34CCOC(C)(C3)C4)cn2cc1C(=O)Nc1cccc(C(F)F)n1 [Example 236] |
| – | 0.0003 | CC(C)Oc1nc2nc(C34CCOC(C)(C3)C4)cn2cc1C(=O)Nc1cccc(C(F)(F)F)n1 [Example 237] |
| – | 0.0008 | COc1ncccc1NC(=O)c1cn2cc(C34CCC(C)(C3)OC4)nc2c(OC(C)C)n1 (centres unmarked) [Example 239] |
| – | 0.0023 | CC(C)Oc1nc(C(=O)Nc2ccn(C)n2)cn2cc(C34CCC(C)(C3)OC4)nc12 (centres unmarked) [Example 240] |
| – | 0.0015 | CCOc1nc2nc(C34COC(C)(C3)C4)cn2cc1C(=O)Nc1cccc(C(F)F)n1 [Example 241] |
| – | 0.0013 | CCOc1nc2nc(C34COC(C)(C3)C4)cn2cc1C(=O)Nc1cccnc1OC [Example 242] |
| – | 0.0002 | CC(C)Oc1cc2nc(C34CCC(C)(C3)OC4)cn2cc1C(=O)Nc1cccc(C(F)F)n1 (centres unmarked) [Example 243] |
| – | 0.0003 | CC(C)Oc1cc2nc(C34COC(C)(C3)C4)cn2cc1C(=O)Nc1cccc(C(F)(F)F)n1 [Example 245] |
| – | 0.0002 | CC(C)Oc1cc2nc(C34CCC(C3)OC4)cn2cc1C(=O)Nc1cccc(C(F)F)n1 (centres unmarked) [Example 246] |
| – | 0.0002 | CC(C)Oc1nc2nc(C34CCC(C)(C3)OC4)cn2cc1C(=O)Nc1cccc(C(F)F)n1 (centres unmarked) [Example 247] |
| – | 0.0002 | COc1ncccc1NC(=O)c1cn2cc(C34CCC(C)(C3)OC4)nc2nc1OC(C)C (centres unmarked) [Example 248] |
| – | 0.0007 | COc1ncccc1NC(=O)c1cn2cc(C34CCC(C3)OC4)nc2cc1OC(C)C (centres unmarked) [Example 249] |
| – | 0.0013 | CC(C)Oc1cc2nc(C34CCC(C)(C3)OC4)cn2cc1C(=O)Nc1cnn2c1OCCC2 (centres unmarked) [Example 250] |
| – | 0.001 | COc1cccc(NC(=O)c2cn3cc(C4C5COCC54)nc3cc2OC(C)C)n1 (centres unmarked) [Example 254, 2-(3-Oxabicyclo[3.1.0]hexan-6-yl)-7-isopropoxy-N-(6-methoxypyridin-2-yl)imidazo[1,2-a]pyridine-6-carboxamide] |
